This data set is described as follows: second and third wash supernates of 1×10^8 RBCs/mL. The conditions noted are these: human, 37°C, up to 24 hours.

Turning to ILPWKWPWWPWRR-NH2, the not cleaved result is “more than 90% recovered after 24 hours”.

Take RRGWALRLVLAY-NH2: the not cleaved entry is recorded as “more than 90% recovered after 24 hours”.

The values are drawn from article PMC5659893 (2017).
